In assay [1] the test system is multi-drug resistant HIV MDR-769 strain. Briefly: HIV MDR 769 strain replication in HeLa cells, without pre-medication. It is filed as cell-based.
A further assay has as its target T1, HMG-CoA reductase (Mus musculus, UniProt Q01237).
T1 construct: endogenous in cells; host or cells: Y1 mouse adrenal tumor cells
T1 sequence (Q01237 1-887): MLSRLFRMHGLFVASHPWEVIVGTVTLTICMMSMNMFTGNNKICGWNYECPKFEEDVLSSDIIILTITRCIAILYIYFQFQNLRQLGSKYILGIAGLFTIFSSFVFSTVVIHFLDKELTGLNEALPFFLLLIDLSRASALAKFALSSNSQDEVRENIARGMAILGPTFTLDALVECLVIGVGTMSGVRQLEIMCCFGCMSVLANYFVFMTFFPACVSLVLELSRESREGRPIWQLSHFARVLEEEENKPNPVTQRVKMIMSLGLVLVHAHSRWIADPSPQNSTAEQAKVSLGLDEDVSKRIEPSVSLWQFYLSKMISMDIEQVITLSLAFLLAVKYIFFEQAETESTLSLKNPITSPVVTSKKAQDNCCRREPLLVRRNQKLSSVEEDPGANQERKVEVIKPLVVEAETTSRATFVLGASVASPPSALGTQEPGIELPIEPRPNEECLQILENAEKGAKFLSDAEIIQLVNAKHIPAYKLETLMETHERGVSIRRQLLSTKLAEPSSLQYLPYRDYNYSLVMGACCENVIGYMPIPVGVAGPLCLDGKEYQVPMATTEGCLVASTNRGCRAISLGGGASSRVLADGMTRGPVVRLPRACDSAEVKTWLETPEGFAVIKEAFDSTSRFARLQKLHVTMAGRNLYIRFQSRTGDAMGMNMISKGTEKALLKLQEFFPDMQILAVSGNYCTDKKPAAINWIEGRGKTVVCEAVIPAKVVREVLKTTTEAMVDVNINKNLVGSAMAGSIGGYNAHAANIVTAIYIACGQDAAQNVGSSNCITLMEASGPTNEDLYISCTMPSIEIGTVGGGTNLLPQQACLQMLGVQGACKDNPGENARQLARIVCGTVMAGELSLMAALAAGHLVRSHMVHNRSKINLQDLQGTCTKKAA
The experiment in a line: Direct effect on HMG-CoA reductase activity in sonicated Y1 cell homogenates. It counts as biochemical. Particulars: sonicated Y1 cells. Here is the method:
Cells were washed twice with ice-cold PBS and incubated with ice-cold assay buffer (0.1M sucrose, 40 mM KH2PO4, 30 mM EDTA, 50 mM KCl, 5 mM DTT, 0.25% (v/v) of Brij 96, at pH 7.4) on ice for 20 minutes. After centrifugation for 3 minutes at 14000 g (4° C.) the supernatants were collected and used for HMG-CoA reductase activity assay. The total 150 l assay mixture contained 100-200 g protein and the NADPH-generating system (2.5 mM NADP, 20 mM glucose 6-phosphate and 20 U/ml glucose 6-phosphate dehydrogenase). The reaction was started by adding substrate (^14C-HMG-CoA, 0.1 Ci) and stopped after 45 minutes by adding 10-1 of HCl 6M. ^3H-mevalonolactone was also added to the samples as an extraction recovery marker. After an additional 30 minutes incubation time, to allow complete lactonization of the product, the mixture was centrifuged. The supernatant was applied to Bond-Elut NH2 column and eluted with 1 ml of toluene/acetone (3:1). The eluate was discarded and further 4 ml of toluene/acetone was applied to the column and collected in a scintillation vial for counting ^14C-mevalonate and ^3H-mevalonolactone signals (Berkhout et al., 1990).
In separate experiments cells were disrupted by sonication and then treated with procaine. The direct effect of the treatment on HMG-CoA reductase activity in the homogenates was determined as described above.

Molecules are shown by their SMILES. Counter-ions that a name gives are not always drawn. Like-named read-outs stand apart in the source and are kept apart here.

As to `CCN(CC)CCOC(=O)c1ccc(N)cc1` [SP01, procaine HCl], the “effect on HIV MDR 769 strain replication” value in assay [1] is given as “effectively blocked”; in assay [1] (concentrations higher than 1 nM), “not effective”. Further, the “inhibition of HIV MDR 769 viral replication” value in assay [1] (concentrations up to 1 nM) is given as 75%. In addition, at HMG-CoA reductase, the “direct effect on HMG-CoA reductase activity” value is on record as “No direct effect”. Besides, the HMG-CoA reductase activity turned out to be 9.9±0.01 pmol/min/mg protein on HMG-CoA reductase (1 μM procaine), 10.3±0.6 pmol/min/mg protein at HMG-CoA reductase (10 μM procaine) and 10.1±0.1 pmol/min/mg protein on HMG-CoA reductase (100 μM procaine).

These data come from patent US20060194814A1, “Benzamide compounds” (priority 2003, published 2006).
